Experimental data from paper PMC10349921 (Bioorganic & medicinal chemistry, 2022).

Target: human galectin 3 (Homo sapiens, UniProt P17931)
Assay: SPR analysis of binding of glycan ligands to immobilized human Gal-3
Conditions: for Relative affinity: calculated relative to the free lactose

Chain of human galectin 3 (P17931 whole entry): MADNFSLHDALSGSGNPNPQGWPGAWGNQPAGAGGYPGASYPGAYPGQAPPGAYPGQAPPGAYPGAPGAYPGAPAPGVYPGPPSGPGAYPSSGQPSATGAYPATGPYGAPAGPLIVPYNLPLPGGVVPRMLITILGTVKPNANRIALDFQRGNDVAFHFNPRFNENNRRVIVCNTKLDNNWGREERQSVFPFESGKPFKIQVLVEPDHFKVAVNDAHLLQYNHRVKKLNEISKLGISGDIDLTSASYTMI

Relative affinity | EC50 (SPR, Gal-3 immobilized on CM5 chip, ligand as analyte, 25 °C) [nM] | enhanced relative affinity (per glycan ligand) in comparison with free lactose (SPR, per glycan ligand) [fold] | Relative affinity per unit (calculated for each sugar unit on cyclodextrin, relative to free lactose) | Compound
< 1.47 | – | – | – | CC(=O)N[C@H]1[C@@H](OCCOCCOCCN=[N+]=[N-])O[C@H](CO)[C@H](O)[C@@H]1O[C@@H]1O[C@H](CO)[C@H](O)[C@H](O)[C@H]1O [mono TFD (2), 2-(2-(2-Azido)ethoxy)ethyl-2-actamido-2-desoxy-3-O-[-β-D-galactopyranosyl]-α-D-galactopyranoside]
1070 | 1370 ± 390 | 153 | 153 | β-Cyclodextrin-GalNAc [CD-Tn (16)]
< 1.47 | – | – | – | CC(=O)N[C@H]1[C@@H](OCCOCCOCCN=[N+]=[N-])O[C@H](CO)[C@H](O)[C@@H]1O [mono Tn (1), 2-(2-(2-Azido)ethoxy)ethyl-2-actamido-2-desoxy-α-D-gal-actopyranoside]
< 1.47 | – | – | – | [N-]=[N+]=NCCOCCOCCO[C@@H]1O[C@H](CO)[C@@H](O[C@@H]2O[C@H](CO)[C@H](O)[C@H](O)[C@H]2O)[C@H](O)[C@H]1O [mono Lac (3)]
